Test results as given in PMC9095466 (Nature, 2022).
pEC50: −log10 of the molar value. Where two headings read alike, the source gives them in different places.

Key:
Assay in all cases: microbe, parasite or virus in culture
Format in all cases: cell-based
SARS-CoV-2 P.1 (Gamma) = conditions: Calu-3 cells, n = 4
[1] = system: SARS-CoV-2 B.1.351 (Beta); conditions: Calu-3 cells, n = 4
[2] = system: SARS-CoV-2 B.1.617.2 (Delta); conditions: Calu-3 cells, n = 4
[3] = system: SARS-CoV-2 B.1.1.7 (Alpha); conditions: Calu-3 cells, n = 4
[4] = system: SARS-CoV-2 lineage B strain (VIDO); conditions: Severe acute respiratory syndrome coronavirus 2, 72 h; Calu-3 cells, Fig. 3d, n = 4; read-out: EC50, dsRNA staining, Variant B (VIDO-01)

`CS(=O)(=O)NC(CCC(N)=O)C(=O)NC(Cc1ccccc1)C(=O)NC(CCCNC(=N)N)C(=O)c1nc2ccccc2s1` (stereo not drawn) [Compound N-0385, Ms-QFR-kbt] gave a pEC50 (SARS-CoV-2 P.1 (Gamma); Severe acute respiratory syndrome coronavirus 2, 72 h, Fig. 3d, read-out: EC50, dsRNA staining, Variant P.1 (Gamma)) of 8.27, a pEC50 (SARS-CoV-2 P.1 (Gamma); Severe acute respiratory syndrome coronavirus 2, Fig. 3c, read-out: EC50, N staining, Variant P.1 (Gamma)) of 8.19 and a pEC50 ([1]; Severe acute respiratory syndrome coronavirus 2, 72 h, Fig. 3d, read-out: EC50, dsRNA staining, Variant B.1.351 (Beta)) of 7.66. It also gave a pEC50 ([1]; Severe acute respiratory syndrome coronavirus 2, Fig. 3c, read-out: EC50, N staining, Variant B.1.351 (Beta)) of 7.89, a pEC50 ([2]; Severe acute respiratory syndrome coronavirus 2, 72 h, Fig. 3d, read-out: EC50, dsRNA staining, Variant B.1.617.2 (Delta)) of 7.58 and a pEC50 ([2]; Severe acute respiratory syndrome coronavirus 2, Fig. 3c, read-out: EC50, N staining, Variant B.1.617.2 (Delta)) of 7.86. It also gave a pEC50 ([3]; Severe acute respiratory syndrome coronavirus 2, 72 h, Fig. 3d, read-out: EC50, dsRNA staining, Variant B.1.1.7 (Alpha)) of 8.59, a pEC50 ([3]; Severe acute respiratory syndrome coronavirus 2, Fig. 3c, read-out: EC50, N staining, Variant B.1.1.7 (Alpha)) of 8.68 and a pEC50 [4] of 7.84.
